Experimental findings from US10711011B2, “Substituted oxazolidines as anti-bacterial agents” (BUGWORKS RESEARCH, INC., priority 2016, dated 2020) are described below.

Structures are written as SMILES. ≈ marks a conversion by molar mass, not a printed value.

One assay concerns S. aureus ATCC 29213. In words: Minimum Inhibitory Concentration (MIC) in LB media. Format: cell-based, Staphylococcus aureus. The conditions noted are these: for MIC: Staphylococcus aureus, ATCC29213, LB Media; for Minimum Inhibitory Concentration S. aureus ATCC 29213: LB Media. From the text: (§1) The compounds of Formula I are of interest due to their potent antibacterial effects. The ability of the invention compounds disclosed herein to achieve an antibacterial effect may be evaluated with regard to their ability to inhibit the growth of bacterial species like Escherichia coli ATCC 25922, Staphylococcus aureus ATCC 29213, Klebsiella pneumoniae ATCC 13883, Acinetobacter baumannii ATCC 19606, Pseudomonas aurigenosa ATCC 27853, Enterococcus faecalis ATCC 29212 and Enterococcus faecalis ATCC 29212 using an assay based on the following Minimum Inhibitory Concentration (MIC) protocol:
(§2) The test bacteria are grown in Luria Bertani Broth (HIMEDIA M1245), 25 grams of the powder is dissolved in 1000 ml distilled water and sterilized by autoclaving at 15 lbs pressure (121° C.) for 20 minutes. The medium sterility is checked by incubating at 37° C. for a period of 48 h.
(§3) Bacterial cultures that are stored as glycerol stocks at −80° C. are sub cultured on LB agar plates to obtain isolated colonies. A single colony of each strain is cultured in LB broth. The cultures are incubated at 37° C., 200 rpm till they reach an optical density (OD at 600 nm) of 0.8 to 1. […] Test compounds are dissolved in dimethyl sulfoxide (DMSO) to a stock concentration of 4 mg/ml. A twofold dilution series of this DMSO stock is prepared in a 96 well V bottom microtitre plate from rows A to H. A 3 μL volume of these dilutions are transferred to a 96-well flat bottom microtitre assay plate. Controls to monitor the effects of DMSO and media sterility are included. Each well is inoculated with 150 μL of the above diluted culture. The plates are incubated at 37° C. overnight in a humidified incubator. The following morning, the plates are read using a Spectrophotometer at 600 nm wavelength. […] The antibacterial activity (MIC) determined against representative Gram positive (S. aureus, E. faecalis) and Gram negative (E. coli, P. aurigenosa, K. pneumoniae and A. baumannii) pathogen were reported Table 1.

A further assay concerns E. faecalis ATCC 29212. In words: Minimum Inhibitory Concentration (MIC) in LB media. Format: cell-based, Enterococcus faecalis. Conditions: for MIC: Enterococcus faecalis, ATCC29212.
Description: as §1, §2, §3

For another assay, the system named is E. coli ATCC 25922. The experiment in a line: Minimum Inhibitory Concentration (MIC) in LB media. Format: cell-based, Escherichia coli. Conditions: for MIC: Escherichia coli, ATCC25922, LB Media; for Minimum Inhibitory Concentration E. coli ATCC 25922: LB Media.
Description: as §1, §2, §3

The subject of another assay is P. aurigenosa ATCC 27853. The experiment in a line: Minimum Inhibitory Concentration (MIC) in LB media. In kind it is cell-based, Pseudomonas aurigenosa. Conditions: for MIC: Pseudomonas, ATCC27853, LB Media; for Minimum Inhibitory Concentration P. aurigenosa ATCC 27853: LB Media.
Description: as §1, §2, §3

Another assay relates to K. pneumoniae ATCC 13883. In words: Minimum Inhibitory Concentration (MIC) in LB media. In kind it is cell-based, Klebsiella pneumoniae. The conditions noted are these: for MIC: Klebsiella pneumoniae, ATCC13883, LB Media; for Minimum Inhibitory Concentration K. pneumoniae ATCC 13883: LB Media.
Description: as §1, §2, §3

In a further assay the test system is A. baumannii ATCC 19606. The experiment in a line: Minimum Inhibitory Concentration (MIC) in LB media. Format: cell-based, Acinetobacter baumannii. Conditions: for MIC: Acinetobacter baumannii, ATCC19606, LB Media; for Minimum Inhibitory Concentration A. baumannii ATCC 19606: LB Media.
Description: as §1, §2, §3

In a further assay the target is E. coli DNA gyrase (Escherichia coli, UniProt P0AES4+P0AES6). The experiment in a line: biochemical. Conditions: supercoiling assay.
Sequence of E. coli DNA gyrase (P0AES4 whole entry, one chain of several): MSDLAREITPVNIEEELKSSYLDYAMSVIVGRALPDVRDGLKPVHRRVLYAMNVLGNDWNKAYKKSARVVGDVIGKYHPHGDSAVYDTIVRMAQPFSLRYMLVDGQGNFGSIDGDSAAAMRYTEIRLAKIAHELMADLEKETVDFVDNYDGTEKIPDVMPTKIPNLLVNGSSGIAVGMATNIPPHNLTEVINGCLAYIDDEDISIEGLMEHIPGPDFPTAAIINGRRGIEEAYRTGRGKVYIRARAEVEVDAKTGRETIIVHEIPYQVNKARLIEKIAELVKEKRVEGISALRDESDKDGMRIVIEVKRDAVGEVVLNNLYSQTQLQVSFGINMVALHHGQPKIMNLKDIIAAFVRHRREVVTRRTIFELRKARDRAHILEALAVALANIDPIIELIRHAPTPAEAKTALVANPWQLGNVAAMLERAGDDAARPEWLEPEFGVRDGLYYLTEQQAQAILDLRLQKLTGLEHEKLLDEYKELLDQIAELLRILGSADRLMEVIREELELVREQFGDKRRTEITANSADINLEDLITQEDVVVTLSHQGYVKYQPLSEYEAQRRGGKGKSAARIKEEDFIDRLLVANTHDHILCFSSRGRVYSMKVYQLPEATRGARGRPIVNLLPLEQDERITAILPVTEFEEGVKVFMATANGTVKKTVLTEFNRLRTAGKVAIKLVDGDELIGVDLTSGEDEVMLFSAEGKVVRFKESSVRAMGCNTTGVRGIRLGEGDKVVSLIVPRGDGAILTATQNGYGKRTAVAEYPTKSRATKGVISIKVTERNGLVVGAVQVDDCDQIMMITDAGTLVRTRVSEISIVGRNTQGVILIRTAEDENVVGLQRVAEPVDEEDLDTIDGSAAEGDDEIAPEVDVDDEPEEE
In the next assay the target is E. coli topoisomerase IV (Escherichia coli, UniProt P0AFI2+P20083). The experiment in a line: biochemical. The conditions noted are these: decatenation assay; read-out: E. coli Topo IV IC50.
Sequence of E. coli topoisomerase IV (P0AFI2 whole entry): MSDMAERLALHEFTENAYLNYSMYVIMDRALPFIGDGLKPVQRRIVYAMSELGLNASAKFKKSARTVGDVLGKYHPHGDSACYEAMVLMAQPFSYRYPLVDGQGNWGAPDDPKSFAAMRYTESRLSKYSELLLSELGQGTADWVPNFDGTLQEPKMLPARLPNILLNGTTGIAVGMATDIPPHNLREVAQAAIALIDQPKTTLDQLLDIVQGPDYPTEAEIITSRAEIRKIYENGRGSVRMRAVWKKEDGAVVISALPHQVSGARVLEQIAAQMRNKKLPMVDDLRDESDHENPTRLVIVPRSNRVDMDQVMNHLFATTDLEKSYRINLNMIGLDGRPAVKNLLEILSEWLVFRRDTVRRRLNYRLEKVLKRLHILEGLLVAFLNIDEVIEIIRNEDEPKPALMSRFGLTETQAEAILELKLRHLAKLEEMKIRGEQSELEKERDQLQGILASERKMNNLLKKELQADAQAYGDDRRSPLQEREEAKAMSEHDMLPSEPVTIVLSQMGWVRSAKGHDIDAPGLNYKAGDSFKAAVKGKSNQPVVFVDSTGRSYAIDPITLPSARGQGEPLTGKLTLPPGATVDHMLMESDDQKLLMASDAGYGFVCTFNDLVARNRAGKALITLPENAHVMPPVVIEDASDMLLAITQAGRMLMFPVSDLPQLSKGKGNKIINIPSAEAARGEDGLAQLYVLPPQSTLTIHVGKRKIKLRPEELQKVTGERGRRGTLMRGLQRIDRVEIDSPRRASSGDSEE
Sequence of E. coli topoisomerase IV (P20083 whole entry): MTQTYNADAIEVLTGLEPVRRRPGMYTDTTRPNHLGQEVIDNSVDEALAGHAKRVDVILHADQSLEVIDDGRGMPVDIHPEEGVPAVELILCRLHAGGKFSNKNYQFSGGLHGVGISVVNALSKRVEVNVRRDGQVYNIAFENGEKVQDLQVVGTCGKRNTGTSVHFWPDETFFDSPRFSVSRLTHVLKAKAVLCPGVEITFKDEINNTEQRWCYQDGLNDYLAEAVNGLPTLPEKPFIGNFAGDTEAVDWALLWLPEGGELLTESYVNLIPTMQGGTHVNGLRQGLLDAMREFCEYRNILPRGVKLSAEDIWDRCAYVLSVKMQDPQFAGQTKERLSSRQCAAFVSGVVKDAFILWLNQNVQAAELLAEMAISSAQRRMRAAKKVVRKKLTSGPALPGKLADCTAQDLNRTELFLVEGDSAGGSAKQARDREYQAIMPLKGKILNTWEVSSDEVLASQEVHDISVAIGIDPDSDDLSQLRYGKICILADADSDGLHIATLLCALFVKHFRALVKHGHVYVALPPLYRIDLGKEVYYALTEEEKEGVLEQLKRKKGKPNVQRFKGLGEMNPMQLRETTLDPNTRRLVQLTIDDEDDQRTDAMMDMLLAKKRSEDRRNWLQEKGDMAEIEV
For the next assay, the system named is E. coli clinical strains. In words: MIC50 and MIC90 studies using clinical strains (CLSI guidelines). In kind it is cell-based. The conditions noted are these: for MIC ATCC25922: E. coli reference strain ATCC25922, no unit in this row (MIC50/MIC90 rows: μg/ml); for Minimum (MIC) / MIC50 / MIC90: E. coli, 201 strains; for Minimum (MIC): unit inferred; for MIC50 / MIC90: Escherichia coli.

Assay [1] has as its system A. baumannii (Aba) clinical strains. The description is as above. The conditions noted are these: for MIC ATCC19606: Aba reference strain ATCC19606, unit inferred; for Minimum (MIC) / MIC50 / MIC90: Aba, 169 strains; for Minimum (MIC): unit not given, in µg/mL; for MIC50 / MIC90: Acinetobacter baumannii. Format: cell-based.
In assay [2] the test system is K. pneumoniae (Kpn) clinical strains. Described as above. Format: cell-based. The conditions noted are these: for MIC50 / MIC90: Klebsiella pneumoniae; for MIC50 / MIC90 / Minimum (MIC): Kpn, 211 strains; for MIC ATCC13883: Kpn reference strain ATCC13883; for MIC ATCC13883 / Minimum (MIC): unit inferred.
Assay [3] concerns P. aurigenosa (Pae) clinical strains. Described as above. Conditions: for MIC ATCC27853: Pae reference strain ATCC27853, unit inferred; for MIC50 / MIC90 / Minimum (MIC): Pae, 215 strains; for Minimum (MIC): unit not given, in µg/mL. In kind it is cell-based.

In the case of `CN1C(=O)Cc2ccc(F)c(CNCCCC3CN(c4ccc5c(n4)NC(=O)CO5)C(=O)O3)c21` (racemic) [Example 6, 6-(5-(3-(((6-fluoro-1-methyl-2-oxoindolin-7-yl)methyl)amino)propyl)-2-oxooxazolidin-3-yl)-2H-pyrido[3,2-b][1,4]oxazin-3(4H)-one], the MIC in the assay on S. aureus ATCC 29213 stood at 0.13 µg/mL (≈ 0.277 µM); in the assay with E. faecalis ATCC 29212, 0.5 µg/mL (≈ 1.07 µM); in the assay on E. coli ATCC 25922 it was 0.25 µg/mL (≈ 0.533 µM); in the assay with P. aurigenosa ATCC 27853, 1 µg/mL (≈ 2.13 µM); against K. pneumoniae ATCC 13883, 0.5 µg/mL (≈ 1.07 µM); against A. baumannii ATCC 19606 it was 0.25 µg/mL (≈ 0.533 µM). In addition, the 50% inhibitory concentration (IC50) worked out at 0.056 µM on E. coli DNA gyrase and 0.459 µM at E. coli topoisomerase IV.
On to `CN1C(=O)Cc2ccc(F)c(CNCCCC3CN(c4ccc5c(n4)NC(=O)CO5)C(=O)O3)c21` (single isomer, unassigned) [Example 10, 6-(5-(3-(((6-fluoro-1-methyl-2-oxoindolin-7-yl)methyl)amino)propyl)-2-oxooxazolidin-3-yl)-2H-pyrido[3,2-b][1,4]oxazin-3(4H)-one], for which the “Minimum Inhibitory Concentration S. aureus ATCC 29213” value in the assay with S. aureus ATCC 29213 came out at 0.06 µg/mL. In addition, in the assay on E. faecalis ATCC 29212, the “Minimum Inhibitory Concentration E. faecalis ATCC 29212” value worked out at 0.5 µg/mL. The “Minimum Inhibitory Concentration E. coli ATCC 25922” value in the assay on E. coli ATCC 25922 came out at 0.125 µg/mL. The “Minimum Inhibitory Concentration P. aurigenosa ATCC 27853” value in the assay with P. aurigenosa ATCC 27853 was 1 µg/mL. The “Minimum Inhibitory Concentration K. pneumoniae ATCC 13883” value in the assay on K. pneumoniae ATCC 13883 turned out to be 0.25 µg/mL. For the same molecule, in the assay with A. baumannii ATCC 19606, the “Minimum Inhibitory Concentration A. baumannii ATCC 19606” value amounted to 0.06 µg/mL. Also, the IC50 on E. coli DNA gyrase is 0.106 µM; at E. coli topoisomerase IV it was 0.398 µM.
For the molecule `CN1C(=O)Cc2ccc(F)c(CCNCCC3CN(c4ccc5c(n4)NC(=O)CO5)C(=O)O3)c21` (single isomer, unassigned) [Example 14, 6-(5-(2-((2-(6-fluoro-1-methyl-2-oxoindolin-7-yl)ethyl)amino)ethyl)-2-oxooxazolidin-3-yl)-2H-pyrido[3,2-b][1,4]oxazin-3(4H)-one], the “Minimum Inhibitory Concentration S. aureus ATCC 29213” value in the assay on S. aureus ATCC 29213 amounted to 0.03 µg/mL. In addition, the “Minimum Inhibitory Concentration E. faecalis ATCC 29212” value in the assay with E. faecalis ATCC 29212 came to 0.25 µg/mL. Also, the “Minimum Inhibitory Concentration E. coli ATCC 25922” value with E. coli ATCC 25922 was 0.03 µg/mL. Besides, the “Minimum Inhibitory Concentration P. aurigenosa ATCC 27853” value in the assay on P. aurigenosa ATCC 27853 amounted to 0.5 µg/mL. Also, the “Minimum Inhibitory Concentration K. pneumoniae ATCC 13883” value in the assay with K. pneumoniae ATCC 13883 worked out at 0.125 µg/mL. For the same molecule, the “Minimum Inhibitory Concentration A. baumannii ATCC 19606” value in the assay with A. baumannii ATCC 19606 turned out to be 0.03 µg/mL. The IC50 against E. coli DNA gyrase came to 0.1 µM. For the same molecule, the IC50 at E. coli topoisomerase IV worked out at 0.036 µM. Moreover, in the assay on E. coli clinical strains, the MIC ATCC25922 came to 0.06 µg/mL (≈ 0.128 µM), the Minimum (MIC) was found to be 0.03 µg/mL, the MIC50 stood at 0.25 µg/mL (≈ 0.533 µM) and the MIC90 stood at 0.5 µg/mL (≈ 1.07 µM). Also, in [1], the MIC ATCC19606 came out at 0.06 µg/mL (≈ 0.128 µM), the “Minimum (MIC)” value stood at 0.015, the MIC50 amounted to 0.25 µg/mL (≈ 0.533 µM) and the MIC90 turned out to be 0.5 µg/mL (≈ 1.07 µM). In assay [2], this molecule registered an MIC50 of 1 µg/mL (≈ 2.13 µM), an MIC90 of 4 µg/mL (≈ 8.52 µM), an MIC ATCC13883 of 0.25 µg/mL (≈ 0.533 µM) and a Minimum (MIC) of 0.06 µg/mL. Besides, in [3], the MIC ATCC27853 is 0.5 µg/mL (≈ 1.07 µM), the MIC50 came out at 0.5 µg/mL (≈ 1.07 µM), the MIC90 came out at 1 µg/mL (≈ 2.13 µM) and the “Minimum (MIC)” value is reported as 0.03125.
With `CCN1C(=O)Cc2ccc(F)c(CNCCCC3CN(c4ccc5c(n4)NC(=O)CO5)C(=O)O3)c21` (stereo not drawn) [Example 8, 6-(5-(3-(((1-Ethyl-6-fluoro-2-oxoindolin-7-yl)methyl)amino)propyl)-2-oxooxazolidin-3-yl)-2H-pyrido[3,2-b][1,4]oxazin-3(4H)-one], the MIC in the assay on S. aureus ATCC 29213 is 0.07 µg/mL (≈ 0.145 µM); against E. faecalis ATCC 29212 it was 0.15 µg/mL (≈ 0.31 µM); with E. coli ATCC 25922 it was 0.15 µg/mL (≈ 0.31 µM); in the assay on P. aurigenosa ATCC 27853, 2.5 µg/mL (≈ 5.17 µM); against K. pneumoniae ATCC 13883, 0.3 µg/mL (≈ 0.62 µM); against A. baumannii ATCC 19606, 0.15 µg/mL (≈ 0.31 µM). In addition, the IC50 was found to be 0.054 µM at E. coli DNA gyrase and 0.362 µM at E. coli topoisomerase IV.
For `CN1C(=O)Cc2ccc(F)c(CNCCCC3CN(c4ccc5c(c4)NC(=O)CO5)C(=O)O3)c21` (stereo not drawn) [Example 12, 6-(5-(3-(((6-fluoro-1-methyl-2-oxoindolin-7-yl)methyl)amino)propyl)-2-oxooxazolidin-3-yl)-2H-benzo[b][1,4]oxazin-3(4H)-one], the MIC in the assay on S. aureus ATCC 29213 was 0.25 µg/mL (≈ 0.534 µM); against E. faecalis ATCC 29212 it was 0.5 µg/mL (≈ 1.07 µM); with E. coli ATCC 25922, 0.25 µg/mL (≈ 0.534 µM); against P. aurigenosa ATCC 27853 it was 2 µg/mL (≈ 4.27 µM); against K. pneumoniae ATCC 13883, 0.5 µg/mL (≈ 1.07 µM); with A. baumannii ATCC 19606, 0.13 µg/mL (≈ 0.277 µM). Moreover, the IC50 on E. coli DNA gyrase was 0.089 µM; at E. coli topoisomerase IV, 0.6 µM.
In the assay on E. coli clinical strains, `C[C@@H](O)[C@H]1C(=O)N2C(C(=O)O)=C(S[C@@H]3CN[C@H](C(=O)N(C)C)C3)[C@H](C)[C@H]12` [Meropenem, reference compound] came in with an MIC ATCC25922 of 0.06 µg/mL (≈ 0.156 µM), a Minimum (MIC) of 0.03 µg/mL, an MIC50 of 0.06 µg/mL (≈ 0.156 µM) and an MIC90 of 4 µg/mL (≈ 10.4 µM). Also, in assay [1], the MIC ATCC19606 was determined as 0.5 µg/mL (≈ 1.3 µM), the “Minimum (MIC)” value was 0.03125, the MIC50 came out at 8 µg/mL (≈ 20.9 µM) and the MIC90 amounted to 32 µg/mL (≈ 83.4 µM). Further, in [2], the MIC50 worked out at 1 µg/mL (≈ 2.61 µM), the MIC90 came out at 16 µg/mL (≈ 41.7 µM), the MIC ATCC13883 was found to be 0.06 µg/mL (≈ 0.156 µM) and the Minimum (MIC) worked out at 0.03 µg/mL. Further, in [3], the MIC ATCC27853 is 0.5 µg/mL (≈ 1.3 µM), the MIC50 came to 2 µg/mL (≈ 5.22 µM), the MIC90 is 8 µg/mL (≈ 20.9 µM) and the “Minimum (MIC)” value is 0.03.
